The values that follow come from patent US20230338362A1 (priority 2020, published 2023).

The test system of data set [1] is IRAK1, NF-κB, MAPKs, IRAK4 (MyD88 signaling). The experiment in a line: MyD88 signaling in human macrophages. Format: cell-based.
For data set [2], the system named is macrophages treated with SARS-CoV-2 Spike protein. Format: cell-based, human.
Data set [3] has the same test system. It counts as cell-based, human. This is another data set of the same source.
Data set [4] concerns VERO-E6 cells enriched for angiotensin converting enzyme 2 receptor (ACE-2). The experiment in a line: In vitro toxicity, cell viability assay in VERO-E6 cells in the absence of virus. Conditions: Table I, positive controls; absence of SARS-CoV-2 virus.
A further data set relates to SARS-CoV-2. The experiment in a line: SARS-CoV-2 inhibition, cell viability assay (CellTiter-Glo) in VERO-E6 cells enriched for ACE-2. It counts as cell-based. On the technique in general: Cellular ATP, detected with luciferase, serves as a proxy for viable cell number.
A further data set deals with Influenza A. In words: In vitro activity against Influenza A, methods analogous to Example 1. It counts as cell-based.
The next data set deals with common cold coronavirus. In words: In vitro activity against common cold coronaviruses, methods analogous to Example 1. It counts as cell-based.
A further data set concerns Influenza B. In words: In vitro activity against Influenza B, methods analogous to Example 1. It counts as cell-based.
A further data set has as its system SARS-CoV. It counts as cell-based.
In a further data set the test system is MERS-CoV. It counts as cell-based.
Where [5] appears, read: human macrophages, through interaction with MyD88.

Read-outs that look alike come from different tables or passages of the source. Peptide text beside a SMILES is read from it. * marks the point of attachment. Cbz = O=C(OCc1ccccc1)*; CH2F = FC*

Regarding `O=C(OC[C@H]1O[C@@H](OC(=O)c2cc(O)c(O)c(O)c2)[C@H](OC(=O)c2cc(O)c(O)c(O)c2)[C@@H](OC(=O)c2cc(O)c(O)c(O)c2)[C@@H]1OC(=O)c1cc(O)c(O)c(O)c1)c1cc(O)c(O)c(O)c1`, the “NF-κB translocation into the nucleus” value in data set [1] was “inhibited NF-κB translocation into the nucleus”. Also, in [1] (setting [5]), the “activation of IRAK1, NF-κB, and MAPKs” value is “potently reduced the activation of IRAK1, NF-κB, and MAPKs”; the “expression of IRAK4” value was “increasing expression of IRAK4”. Moreover, in data set [2], the anti-inflammatory cytokines result was “inducing anti-inflammatory cytokines such as IL-10”; the “expression of cytokine modulators / anti-inflammatory cytokines” value is “activated expression of cytokine modulators IL-10 and IFN-γ”; the “expression of pro-inflammatory cytokines” value is “inhibited expression of pro-inflammatory cytokines IL-1α, VEGF, IL-1β, IL-2, IL-4, IL-5, IL-6, IL-8, IL-12p70, IL-13, GM-CSF, GRO, MCP-1, MIP-1α, MIP-1β, MMP-9, RANTES, and TNF-α”; the “expression of the anti-inflammatory cytokine IL-10” value is “increasing expression of the anti-inflammatory cytokine IL-10”. In data set [2], the multiple pro-inflammatory cytokines result is “suppressed multiple pro-inflammatory cytokines such as IL-1β, TNF-α, IL-6 IL-8, IL-12, MCP-1 and MIP-1α”; the pro-inflammatory cytokines result is “selectively inhibited pro-inflammatory cytokine, such as IL-1α, VEGF, IL-1β, IL-2, IL-4, IL-5, IL-6, IL-8, IL-12p70, IL-13, GM-CSF, GRO, MCP-1, MIP-1α, MIP-1β, MMP-9, RANTES, and TNF-α”. Moreover, in data set [3], the “apoptosis by activation of caspase 3” value is given as “selectively induces apoptosis” and the “apoptosis by caspase 3 activation” value is recorded as “not observed to induce apoptosis”.

The term CC50 denotes the concentration that lowers cell viability or growth by half. For orientation: IC50 means the concentration needed to halve the response being measured. The compound `CC(C)C[C@H](NC(=O)OCc1ccccc1)C(=O)N[C@@H](CC(C)C)C(=O)N[C@@H](Cc1ccc(O)cc1)C(=O)CF` [Calpain Inhibitor IV, reference compound] (Cbz-Leu-Leu-Tyr-CH2F) gave a CC50 in data set [4] of over 7.17 µM. Moreover, in the data set on SARS-CoV-2 (Table I, positive controls, VERO-E6 cells enriched for ACE-2 plus SARS-CoV-2, read-out: IC50), the IC50 is 0.12 µM.

In data set [4], `CCN(CC)CCCC(C)Nc1ccnc2cc(Cl)ccc12` (stereo not drawn) [Chloroquine, chloroquine, reference compound] registered a CC50 of over 30 µM.

For the compound `CCOC(=O)[C@H]1O[C@@H]1C(=O)N[C@@H](CC(C)C)C(=O)NCCC(C)C` [E64d (aloxistatin), aloxistatin, reference compound], the CC50 in data set [4] was over 30 µM.

Consider `COc1cc(O)cc(O)c1C(=O)/C=C/c1ccc(O)cc1` [Helichrysetin, (E)-1-(2,4-dihydroxy-6-methoxyphenyl)-3-(4-hydroxyphenyl)prop-2-en-1-one], for which the “activity against Influenza A” value in the data set with Influenza A is on record as “active”. Also, in data set [2], the anti-inflammatory cytokines entry is “inducing anti-inflammatory cytokines such as IL-10”; the “expression of cytokine modulators / anti-inflammatory cytokines” value is reported as “activated expression of cytokine modulator IL-10”; the “expression of pro-inflammatory cytokines” value was “inhibited expression of pro-inflammatory cytokines IL-1α, VEGF, IL-1β, IL-4, IL-5, IL-6, IL-8, IL-12p70, IL-13, MCP-1, MIP-1α, MIP-1β, MMP-9 and TNF-α”; the pro-inflammatory cytokines entry is “selectively inhibited pro-inflammatory cytokine, such as IL-1α, VEGF, IL-1β, IL-4, IL-5, IL-6, IL-8, IL-12p70, IL-13, MCP-1, MIP-1α, MIP-1β, MMP-9 and TNF-α”. Further, the “activity against common cold coronavirus” value with common cold coronavirus is “active”. For the same compound, in data set [3], the “apoptosis by activation of caspase 3” value is on record as “selectively induces apoptosis” and the “apoptosis by caspase 3 activation” value is on record as “not observed to induce apoptosis”. The IC50 in the data set with SARS-CoV-2 (Severe acute respiratory syndrome coronavirus 2, Vero C1008, Table II, antiviral compounds, VERO-E6 cells enriched for ACE-2 plus SARS-CoV-2, read-out: IC50) was 10.4 µM. Besides, the IC50 in the data set on SARS-CoV-2 (Severe acute respiratory syndrome coronavirus 2, Vero C1008, read-out: IC50 in an in vitro inhibition assay against SARS-CoV-2) amounted to 10.4 µM. In the data set with Influenza B, the “activity against Influenza B” value is given as “active”. For the same compound, the “activity against SARS-CoV” value in the data set with SARS-CoV was “active”. In the data set on MERS-CoV, the “activity against MERS-CoV” value is “active”.

`CCN(CCO)CCCC(C)Nc1ccnc2cc(Cl)ccc12` (stereo not drawn) [Hydroxychloroquine, hydroxychloroquine, reference compound] displayed a CC50 in data set [4] of over 30 µM.

Turning to `CCC(CC)COC(=O)[C@H](C)N[P@](=O)(OC[C@H]1O[C@@](C#N)(c2ccc3c(N)ncnn23)[C@H](O)[C@@H]1O)Oc1ccccc1` [Remdesivir, remdesivir, reference compound], the 50% cytotoxic concentration (CC50) in data set [4] is over 30 µM.
